Data on 41 molecules can be found in patent US7994209B2, “3-phenoxymethylpyrrolidine compounds” (Theravance, Inc., priority 2009, dated 2011).

In one test the target is hNET (Homo sapiens, UniProt P23975). Put plainly: hNET membrane radioligand binding assay (3H-nisoxetine), Assay 1.
Another test addresses hSERT (Homo sapiens, UniProt P31645). Put plainly: hSERT membrane radioligand binding assay (3H-citalopram), Assay 1. The following applies: SERT pKi, hSERT HEK-293 membranes, 1.0 nM 3H-citalopram; values given as lower bounds.

Molecules are shown by their SMILES.

hNET, sequence (P23975 whole entry): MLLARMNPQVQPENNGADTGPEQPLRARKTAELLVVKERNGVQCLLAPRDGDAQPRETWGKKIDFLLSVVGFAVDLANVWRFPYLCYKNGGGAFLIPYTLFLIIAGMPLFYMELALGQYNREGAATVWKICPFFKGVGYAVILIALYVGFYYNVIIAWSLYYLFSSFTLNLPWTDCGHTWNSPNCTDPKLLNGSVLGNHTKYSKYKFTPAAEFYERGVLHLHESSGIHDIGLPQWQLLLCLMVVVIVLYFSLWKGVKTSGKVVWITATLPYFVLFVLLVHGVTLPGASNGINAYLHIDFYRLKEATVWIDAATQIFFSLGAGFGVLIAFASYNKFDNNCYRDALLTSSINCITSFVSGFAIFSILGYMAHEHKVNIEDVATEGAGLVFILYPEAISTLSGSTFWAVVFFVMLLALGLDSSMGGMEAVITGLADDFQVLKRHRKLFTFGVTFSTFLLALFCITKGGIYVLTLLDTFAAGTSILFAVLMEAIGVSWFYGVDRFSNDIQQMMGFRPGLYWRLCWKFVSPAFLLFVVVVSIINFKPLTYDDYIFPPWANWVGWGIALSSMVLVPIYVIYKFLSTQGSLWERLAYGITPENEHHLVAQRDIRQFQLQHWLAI
hSERT, sequence (P31645 whole entry): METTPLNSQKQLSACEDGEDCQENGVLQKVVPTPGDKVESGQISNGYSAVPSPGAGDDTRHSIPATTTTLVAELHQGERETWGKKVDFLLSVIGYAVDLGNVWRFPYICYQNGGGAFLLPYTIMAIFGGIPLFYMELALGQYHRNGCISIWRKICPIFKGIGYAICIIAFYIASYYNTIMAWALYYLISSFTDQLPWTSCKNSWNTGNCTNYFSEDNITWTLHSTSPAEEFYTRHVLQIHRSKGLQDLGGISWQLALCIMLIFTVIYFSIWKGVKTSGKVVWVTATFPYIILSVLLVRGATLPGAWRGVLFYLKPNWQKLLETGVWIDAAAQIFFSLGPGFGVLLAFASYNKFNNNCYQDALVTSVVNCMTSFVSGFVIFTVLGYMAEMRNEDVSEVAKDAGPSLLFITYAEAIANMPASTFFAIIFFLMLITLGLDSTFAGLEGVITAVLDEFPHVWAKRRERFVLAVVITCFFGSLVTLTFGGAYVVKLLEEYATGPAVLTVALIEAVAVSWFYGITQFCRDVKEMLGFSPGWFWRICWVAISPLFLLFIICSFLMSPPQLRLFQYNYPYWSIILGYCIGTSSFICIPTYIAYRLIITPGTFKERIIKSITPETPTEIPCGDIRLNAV
Description for hNET: Membrane radioligand binding assays were used to measure inhibition of labeled ligand (^3H-citalopram or ^3H-nisoxetine or ^3H-WIN35428) binding to membranes prepared from cells expressing the respective human recombinant transporter (hSERT or hNET or hDAT) in order to determine the pKi values of test compounds at the transporters.
Recombinant human embryonic kidney (HEK-293) derived cell lines stably transfected with hSERT or hNET, respectively, were grown in DMEM medium supplemented with 10% dialyzed FBS (for hSERT) or FBS (for hNET), 100 μg/mL penicillin, 100 μg/mL streptomycin, 2 mM L-glutamine and 250 μg/mL of the aminoglycoside antibiotic G418, in a 5% CO2 humidified incubator at 37° C. When cultures reached 80% confluence, the cells were washed thoroughly in PBS (without Ca^2+ and Mg^2+) and lifted with 5 mM EDTA in PBS. Cells were pelleted by centrifugation, resuspended in lysis buffer (10 mM Tris-HCl, pH7.5 containing 1 mM EDTA), homogenized, pelleted by centrifugation, then resuspended in 50 mM Tris-HCl, pH 7.5 and 10% sucrose at 4° C. Protein concentration of the membrane suspension was determined using a Bio-Rad Bradford Protein Assay kit. Membranes were snap frozen and stored at −80° C.
Binding assays were performed in a 96-well assay plate in a total volume of 200 μl assay buffer (50 mM Tris-HCl, 120 mM NaCl, 5 mM KCl, pH 7.4) with 0.5, 1, and 3 μg membrane protein, for SERT, NET and DAT, respectively.
Stock solutions (10 mM in DMSO) of test compound were prepared and serial dilutions made using Dilution Buffer (50 mM Tris-HCl, 120 mM NaCl, 5 mM KCl, pH 7.4, 0.1% BSA, 400 μM ascorbic acid).
Following a 60 minute incubation at 22° C. (or a period sufficient to reach equilibrium), the membranes were harvested by rapid filtration over a 96-well UniFilter GF/B plate, pretreated with 0.3% polyethyleneimine, and washed 6 times with 300 μl wash buffer (50 mM Tris-HCl, 0.9% NaCl, pH 7.5 at 4° C.). Plates were dried overnight at room temperature, approximately 45 μl of MicroScint™-20 (Perkin Elmer) added and bound radioactivity quantitated via liquid scintillation spectroscopy. Inhibition curves and saturation isotherms were analyzed using GraphPad Prism Software package (GraphPad Software, Inc., San Diego, Calif.). IC50 values were generated from concentration response curves using the Sigmoidal Dose Response (variable slope) algorithm in Prism GraphPad.

A word on the Ki: it is the equilibrium dissociation constant of an inhibitor or competing ligand from its target. Higher therefore signals lower affinity. For the molecule `Clc1cc(Cl)cc(OC(C2CCCCC2)C2CCNC2)c1` (stereo not shown) [Example 20-6, 3-[Cyclohexyl-(3,5-dichlorophenoxy)methyl]pyrrolidine], the Ki at hNET and at hSERT was not above 0.01 µM throughout.
For the molecule `CC(C)[C@@H](Oc1c(Cl)cccc1Cl)[C@H]1CCNC1` [Example 6-29, (S)-3-[(R)-1-(2,6-Dichlorophenoxy)-2-methylpropyl]pyrrolidine], the Ki at hNET and on hSERT was not above 0.1 µM in each case.
Turning to `CCC[C@@H](Oc1c(Cl)cccc1Cl)[C@H]1CCNC1` [Example 4-34, (S)-3-[(R)-1-(2,6-Dichlorophenoxy)butyl]pyrrolidine], the Ki at hNET was not above 0.01 µM; at hSERT it was not above 0.1 µM.
Taken in the same sequence, the figures for `CC(C)C(Oc1ccc(F)cc1)C1CCNC1` (stereo not shown) [Example 6-73, 3-[1-(4-Fluorophenoxy)-2-methylpropyl]pyrrolidine] were not above 0.1 µM and not above 0.1 µM.
Taken in the same sequence, the figures for `CCC[C@@H](Oc1ccc(Cl)cc1)[C@@H]1CCNC1` [Example 4-4, (R)-3-[(R)-1-(4-Chlorophenoxy)butyl]pyrrolidine] were not above 0.1 µM and not above 0.01 µM.
With `CC[C@@H](Oc1c(F)ccc(Cl)c1F)[C@H]1CCNC1` [Example 2-53, (S)-3-[(R)-1-(3-Chloro-2,6-difluorophenoxy)propyl]pyrrolidine], the Ki was not above 0.01 µM at hNET and not above 0.1 µM at hSERT.
As for `CC(C)C[C@H](Oc1cccc(Cl)c1C(F)(F)F)[C@@H]1CCNC1` [Example 10-37, (R)-3-[(S)-1-(3-Chloro-2-trifluoromethylphenoxy)-3-methylbutyl]pyrrolidine], the figures for the Ki on hNET and on hSERT were not above 0.1 µM and not above 0.01 µM, respectively.
Turning to `CC(C)[C@H](Oc1ccccc1F)[C@H]1CCNC1` [Example 6-1, (S)-3-[(S)-1-(2-Fluorophenoxy)-2-methylpropyl]pyrrolidine], the results for the Ki at hNET and on hSERT were not above 0.01 µM and not above 0.1 µM, respectively.
As for `COc1cc(F)ccc1O[C@H](C1CC1)[C@H]1CCNC1` [Example 16-39, (S)-3-[(R)cyclopropyl-(4-fluoro-2-methoxyphenoxy)methyl]pyrrolidine], the Ki on hNET was not above 0.1 µM; at hSERT it was not above 0.01 µM.
In the case of `Cc1cccc(Cl)c1O[C@@H](C1CC1)[C@H]1CCNC1` [Example 16-45, (S)-3-[(S)-(2-Chloro-6-methylphenoxy)cyclopropylmethyl]pyrrolidine], the figures for the Ki on hNET and on hSERT were not above 0.01 µM and not above 0.1 µM, respectively.
For `CC(C)C[C@@H](Oc1ccc(Cl)cc1)[C@@H]1CCNC1` [Example 10-14, (R)-3-[(R)-1-(4-Chlorophenoxy)-3-methylbutyl]pyrrolidine], the Ki at hNET is not above 0.1 µM; on hSERT it was not above 0.01 µM.
For `CCCC[C@@H](Oc1cccc(Cl)c1C)[C@H]1CCNC1` [Example 8-7, (S)-3-[(R)-1-(3-Chloro-2-methylphenoxy)pentyl]pyrrolidine], the Ki at hNET and at hSERT was not above 0.01 µM in each case.
`CCC[C@H](Oc1cccc(Cl)c1Cl)[C@@H]1CCNC1` [Example 4-24, (R)-3-[(S)-1-(2,3-Dichlorophenoxy)butyl]pyrrolidine]: the Ki at hNET was not above 0.1 µM; on hSERT, not above 0.01 µM.
With `CC[C@H](Oc1cccc(Cl)c1Cl)[C@@H]1CCNC1` [Example 2-30, (R)-3-[(S)-1-(2,3-Dichlorophenoxy)propyl]pyrrolidine], the values for the Ki at hNET and at hSERT were not above 0.1 µM and not above 0.01 µM, respectively.
For the molecule `CCCC[C@@H](Oc1cccc(Cl)c1Cl)[C@H]1CCNC1` [Example 8-6, (S)-3-[(R)-1-(2,3-Dichlorophenoxy)pentyl]pyrrolidine], the Ki at hNET and at hSERT was not above 0.01 µM in each case.
In the case of `CCC[C@@H](Oc1ccc(Cl)cc1C(F)(F)F)[C@H]1CCNC1` [Example 4-65, (S)-3-[(R)-1-(4-Chloro-2-trifluoromethylphenoxy)butyl]pyrrolidine], the Ki on hNET and on hSERT was not above 0.1 µM in each case.
Consider `CC[C@@H](Oc1ccc(Cl)cc1)[C@@H]1CCNC1` [Example 2-3, (R)-3-[(R)-1-(4-Chlorophenoxy)propyl]pyrrolidine], for which the Ki at hNET is not above 0.1 µM; at hSERT, not above 0.01 µM.
For `CCC[C@H](Oc1ccc(Cl)cc1C(F)(F)F)[C@H]1CCNC1` [Example 4-64, (S)-3-[(S)-1-(4-Chloro-2-trifluoromethylphenoxy)butyl]pyrrolidine], the Ki at hNET and at hSERT was not above 0.01 µM throughout.
On to `CCC[C@@H](Oc1ccc(Cl)cc1C(F)(F)F)[C@@H]1CCNC1` [Example 4-67, (R)-3-[(R)-1-(4-Chloro-2-trifluoromethylphenoxy)butyl]pyrrolidine], for which the Ki on hNET is not above 0.1 µM; at hSERT it was not above 0.01 µM.
As to `CCC[C@H](Oc1ccc(Cl)cc1C)[C@@H]1CCNC1` [Example 4-59, (R)-3-[(S)-1-(4-Chloro-2-methylphenoxy)butyl]pyrrolidine], the Ki at hNET and at hSERT was not above 0.01 µM in each case.
For `CCC[C@H](Oc1cc(Cl)cc(Cl)c1)[C@@H]1CCNC1` [Example 4-8, (R)-3-[(S)-1-(3,5-Dichlorophenoxy)butyl]pyrrolidine], the Ki on hNET was not above 0.1 µM; on hSERT, not above 0.01 µM.
Regarding `COc1ccccc1OC(C1CCCCC1)C1CCNC1` (stereo not shown) [Example 20-2, 3-[Cyclohexyl-(2-methoxyphenoxy)methyl]pyrrolidine], the Ki on hNET and on hSERT was not above 0.1 µM throughout.
With `COc1c(Cl)cccc1O[C@@H](C1CC1)[C@H]1CCNC1` [Example 16-18, (S)-3-[(S)-(3-Chloro-2-methoxyphenoxy)cyclopropylmethyl]pyrrolidine], the Ki at hNET is not above 0.01 µM; on hSERT, not above 0.1 µM.
`Cc1cc(Cl)ccc1O[C@H](C1CC1)[C@H]1CCNC1` [Example 16-30, (S)-3-[(R)-(4-Chloro-2-methylphenoxy)cyclopropylmethyl]pyrrolidine]: the Ki on hNET is not above 0.1 µM; at hSERT, not above 0.01 µM.
Take `CC(C)C(Oc1c(Cl)cccc1Cl)C1CCNC1` (stereo not shown) [Example 6-27, 3-[1-(2,6-Dichlorophenoxy)-2-methylpropyl]pyrrolidine]: the values for the Ki on hNET and at hSERT were not above 0.01 µM and not above 0.1 µM, respectively.
The corresponding values for `CCC[C@@H](Oc1ccccc1Cl)[C@@H]1CCNC1` [Example 4-22, (R)-3-[(R)-1-(2-Chlorophenoxy)butyl]pyrrolidine] are not above 0.01 µM and not above 0.1 µM.
The corresponding values for `CC[C@@H](Oc1c(F)cccc1Cl)[C@H]1CCNC1` [Example 2-26, (S)-3-[(R)-1-(2-Chloro-6-fluorophenoxy)propyl]pyrrolidine] are not above 0.01 µM and not above 0.1 µM.
With `CC[C@H](Oc1ccccc1OC)[C@H]1CCNC1` [Example 2-67, (S)-3-[(S)-1-(2-Methoxyphenoxy)propyl]pyrrolidine], the Ki was not above 0.01 µM at hNET and not above 0.1 µM on hSERT.
Taken in the same sequence, the figures for `CC[C@H](Oc1ccc(F)c(F)c1F)[C@H]1CCNC1` [Example 2-50, (S)-3-[(S)-1-(2,3,4-Trifluorophenoxy)propyl]pyrrolidine] were not above 0.1 µM and not above 0.01 µM.
In the case of `CC(C)[C@@H](Oc1ccc(Cl)cc1)[C@H]1CCNC1` [Example 6-76, (S)-3-[(R)-1-(4-Chlorophenoxy)-2-methylpropyl]pyrrolidine], the Ki at hNET is not above 0.1 µM; on hSERT, not above 0.01 µM.
On to `FC1(F)CCC(C(Oc2cc(Cl)cc(Cl)c2)C2CCNC2)CC1` (stereo not shown) [Example 21, 3-[(3,5-Dichloro-phenoxy)-(4,4-difluorocyclohexyl)methyl]pyrrolidine], for which the Ki on hNET and on hSERT was not above 0.01 µM each time.
Consider `Fc1ccc(O[C@H](C2CC2)[C@@H]2CCNC2)cc1Cl` [Example 16-90, (R)-3-[(R)-(3-Chloro-4-fluorophenoxy)cyclopropylmethyl]pyrrolidine], for which the values for the Ki on hNET and at hSERT were not above 0.1 µM and not above 0.01 µM, respectively.
`FC(F)(F)c1c(Cl)cccc1O[C@H](C1CC1)[C@H]1CCNC1` [Example 16-17, (S)-3-[(R)-(3-Chloro-2-trifluoromethylphenoxy)cyclopropylmethyl]pyrrolidine]: the Ki on hNET is not above 0.1 µM; at hSERT, not above 0.01 µM.
Turning to `CCC[C@H](Oc1ccc(C)cc1Cl)[C@@H]1CCNC1` [Example 4-38, (R)-3-[(S)-1-(2-Chloro-4-methylphenoxy)butyl]pyrrolidine], the figures for the Ki at hNET and on hSERT were not above 0.1 µM and not above 0.01 µM, respectively.
Taken in the same sequence, the figures for `Clc1ccc(O[C@@H](C2CC2)[C@H]2CCNC2)c2ccccc12` [Example 23-2, (S)-3-[(S)-(4-Chloronaphthalen-1-yloxy)cyclopropylmethyl]pyrrolidine] were not above 0.01 µM and not above 0.1 µM.
Taken in the same sequence, the figures for `COc1ccc(Cl)c(O[C@@H](C2CC2)[C@H]2CCNC2)c1F` [Example 16-70, (S)-3-[(S)-(6-Chloro-2-fluoro-3-methoxyphenoxy)cyclopropylmethyl]pyrrolidine] were not above 0.01 µM and not above 0.1 µM.
Regarding `Clc1ccc(O[C@@H](C2CC2)[C@H]2CCNC2)c(C2CCCCC2)c1` [Example 16-43, (S)-3-[(S)-(4-Chloro-2-cyclohexylphenoxy)cyclopropylmethyl]pyrrolidine], the Ki at hNET is not above 0.01 µM; on hSERT it was not above 0.1 µM.
In the case of `CCC[C@@H](Oc1c(Cl)cccc1Cl)[C@@H]1CCNC1` [Example 4-36, (R)-3-[(R)-1-(2,6-Dichlorophenoxy)butyl]pyrrolidine], the Ki on hNET and on hSERT was not above 0.1 µM throughout.
As for `CC(C)C[C@H](Oc1ccc(Cl)cc1)[C@@H]1CCNC1` [Example 10-12, (R)-3-[(S)-1-(4-Chlorophenoxy)-3-methylbutyl]pyrrolidine], the Ki was not above 0.1 µM at hNET and not above 0.01 µM on hSERT.
With `CCC[C@@H](Oc1ccc(Cl)cc1Cl)[C@@H]1CCNC1` [Example 4-31, (R)-3-[(R)-1-(2,4-Dichlorophenoxy)butyl]pyrrolidine], the Ki is not above 0.1 µM at hNET and not above 0.01 µM on hSERT.
Regarding `CC[C@H](Oc1ccccc1F)[C@H]1CCNC1` [Example 2-46, (S)-3-[(S)-1-(2-Fluorophenoxy)propyl]pyrrolidine], the figures for the Ki on hNET and at hSERT were not above 0.01 µM and not above 0.1 µM, respectively.
